# According to BindingDB's records for doi:10.1016/j.ejmech.2018.08.092 (University of Lille, 2018):
# Experiment: Inhibition of BACE1 in human SH-SY5Y cells harboring wild type APP695 assessed as reduction in amyloid beta (1 to 42) level after 24 hrs by ELISA method
row,SMILES,IC50
1,Oc1c(CN2CCCC2)cc(Nc2ccnc3cc(Cl)ccc23)cc1CN1CCCC1,11.2 µM
2,CN(C)Cc1ccccc1-c1ccc(NCCCCN2CCCCC2)c(OCCN2CCCCC2)c1,1.6 µM
3,CN(C)Cc1ccc(-c2ccc(NCCCN3CCCCC3)c(OCCN3CCCCC3)c2)cc1,1.7 µM
4,CN(C)Cc1ccccc1-c1ccc(NCCN2CCCCC2)c(OCCCCN2CCCCC2)c1,1.6 µM
5,c1cc(-c2ccc(NCCCN3CCCCC3)c(OCCN3CCCCC3)c2)ccc1CN1CCCCC1,3.3 µM
6,CN(C)Cc1ccccc1-c1ccc(NCCCN2CCCCC2)cc1,3.6 µM
7,c1cc(CN2CCCCC2)cc(-c2ccc(NCCCN3CCCCC3)c(OCCN3CCCCC3)c2)c1,4.8 µM
8,CN(C)Cc1ccccc1-c1ccc(NCCCN2CCCCC2)c(OCCC2CCCCC2)c1,2.8 µM
9,c1ccc(-c2cccc(OCCN3CCCCC3)c2)cc1,13.7 µM
10,c1ccc(-c2ccc(NCCCN3CCCCC3)c(OCCN3CCCCC3)c2)c(CN2CCCCC2)c1,4.1 µM
11,c1ccc(-c2ccc(NCCCN3CCCCC3)c(OCCN3CCCCC3)c2)c(CN2CCOCC2)c1,4.2 µM
12,CN(C)Cc1ccccc1-c1ccc(NCCCN2CCCCC2)c(OCCN2CCCCC2)c1,3.4 µM
13,CN(C)Cc1ccccc1-c1ccc(NCCN2CCCCC2)c(OCCN2CCCCC2)c1,1.2 µM
14,c1ccc(-c2ccc(NCCCN3CCCCC3)c(OCCN3CCCCC3)c2)cc1,4 µM
15,CN(C)Cc1ccccc1-c1cccc(OCCN2CCCCC2)c1,1.2 µM
16,CN(C)Cc1ccn(-c2ccc(NCCCN3CCCCC3)c(OCCN3CCCCC3)c2)c1,6.5 µM
17,CN(C)Cc1ccccc1-c1ccc(NCCN2CCCCC2)c(OCCCN2CCCCC2)c1,1.8 µM
18,CC(C)CN(CCCN1CCN(CCCNc2nc3ccccc3[nH]2)CC1)CC(C)C [(1H-Benzoimidazol-2-yl)-{3-[4-(3-diisobutylamino-propyl)-piperazin-1-yl]-propyl}-amine],2.1 µM
